# Laboratory results taken from patent publication US20250034194A1, “INHIBITORS OF ABNORMAL PHOSPHORYLATION AND TAU PROTEIN AGGREGATION” (UNIVERSITE DE PICARDIE JULES VERNE, priority 2021, published 2025).
# Columns and labels:
# [1] = target: T1, tau protein (4R2N, 441 amino acids) (Homo sapiens, UniProt P10636); experiment: In vitro abnormal tau phosphorylation by GSK3β, competition with heparin (western blot); type: biochemical
# T1 construct: purchased Millipore (tau); Promega (GSK3β)
# From the text: Phosphorylation of tau protein is the most common post-translational modification to regulate tau activity and functions. The longest tau isoform (4R2N, 441 amino acids) containing 85 potential phosphorylation sites was used. In vitro phosphorylation of the tau protein is done by induction, on the one hand, (FIG. 5) and, on the other hand, according to a competition process between the LG2A molecules and heparin, conventionally used to induce abnormal tau phosphorylation in vitro (FIGS. 3, 4, 6, 7, 8, 9 and 10).
# For abnormal tau phosphorylation tests, GSK3p, a kinase centrally involved in this process in the brains of subjects with Alzheimer's disease (AD), was used. Analysis of tau phosphorylation by GSK3b at sites characteristic of AD is possible by the western blot technique using specific antibodies that recognize abnormally phosphorylated sites in the brain or cerebrospinal fluid of AD subjects, such as the AT270 antibody which recognizes threonine 181 (Thr181), the PHF1 antibody which recognizes serines 396 and 404 (Ser396/Ser404), and the AT8 antibody, which recognizes the Ser199/Ser202/Thr205 site.
# By competition: The tau protein (40 μg/mL) is phosphorylated by the GSK3β enzyme at 4 ng/mL (Promega) in the presence of ATP (Sigma-Aldrich) at 48 μM and protease inhibitors (Sigma-Aldrich, 1/100), in the buffer mentioned above. The ability of the LG2A molecules (60 μg/mL) to compete with heparin (12 μg/mL; Sigma-Aldrich) is evaluated. Thus if the signal in the presence of the molecules is less than that obtained with heparin alone, the molecules are then defined as “protectors” from abnormal tau phosphorylation.
# In both systems (induction or competition), the tau protein is incubated at 37° C. with stirring in the presence of the different elements presented above. The reaction kinetics are monitored by taking 8 μL of the samples at 1.5 h, 3 h and 6 h of incubation. Loading buffer (Euromedex) and β-mercaptoethanol (Sigma-Aldrich) are added to each sample. The samples are then stored at −20° C. until analysis by western blot.
# After denaturation of the samples by heating at 95° C. for 5 minutes, the samples are deposited simultaneously with the molecular weight marker (Precision Plus Protein™ Dual Color Standards; BIO-RAD) on a 10% acrylamide gel placed in an electrophoresis tank containing migration buffer (0.25 M Tris; 1.6 M Glycine; […]; pH 8.6).
# The controls used for this phosphorylation experiment followed by western blot are: • the “native tau” protein, that is to say the non-phosphorylated tau protein. • the tau protein phosphorylated by GSK3b alone in the absence of heparin. • the tau protein phosphorylated in the presence of heparin, denoted “tau+heparin”. • the “external standard” corresponding to the tau protein phosphorylated in the presence of heparin for 3 h. This standard is carried out in an experiment independently of the phosphorylation experiments in the presence of LG2A compounds. It ensures that the western blot is carried out correctly.
# Then the membrane is incubated overnight with stirring at +4° C. in a solution of PBS, 0.1% Tween and 1% milk containing the primary antibody specific for tau phosphorylation sites (AT270, ThermoScientific or S199-202, Millipore).
# After incubation of the PVDF membrane in the chosen primary antibody, a succession of 3 washes of 5 minutes of the membrane is carried out in PBS and 0.1% Tween with stirring and the membrane is incubated for 1 h with stirring at room temperature in a solution of 1×PBS, 0.1% Tween and 1% milk containing the diluted secondary antibody (Jackson Immuno-Research).
# [2] = target: T2, tau protein (4R2N isoform, 441 amino acids) (Homo sapiens, UniProt P10636); experiment: Induction of tau protein aggregation, Thioflavin T incorporation; type: biochemical; settings: tau 0.71 mg/mL, compound 0.175 mg/mL (mass ratio 4/1); up to 72 h
# T2 construct: purchased Tebu-bio (custom synthesized)
# Protocol: The ability of the 16-carbon disulphated maltobionamide compound “Mal16diS” to induce tau protein aggregation, another step in the occurrence of neurofibrillary tangles, was evaluated. Thus, the ability of this molecule to induce or inhibit the aggregation of tau in vitro (FIG. 10) was evaluated in a test described in the article by Sui et al, 2015 in which tau aggregation is monitored by the incorporation of Thioflavin T (ThT). […]
# 100 μL of ThT (Sigma-Aldrich) at 50 μM is immediately added to each well, then the plate is incubated at 37° C. with stirring. Monitoring the formation of tau protein aggregates is possible by monitoring the incorporation of thioflavin leading to its fluorescence emission and is carried out by reading at 0, 24, 40, 48 and 71 h at Exc wavelength 450 nm/Em wavelength 510 nm, by means of an Infinite M1000 spectrofluorometer (Tecan).
# [3] = test system: SH-SY5Y; experiment: Cytotoxicity study, MTT test; type: cell-based; settings: differentiated SH-SY5Y; 0.1 to 100 μg/mL; 24 hours
# Protocol: In order to evaluate the level of toxicity of these molecules according to their concentration in the cellular environment, an MTT test (3-(4,5-dimethylthiazol-2-yl)-2,5-diphenyl tetrazolium bromide) is carried out (FIGS. 11 and 12) upstream of the phosphorylation tests in cellulo.
# SH-SY5Y (ATCC-CRL-2266) are developed in Dulbecco's Modified Eagle Complete Medium (DMEM-GlutaMAX™, Life Technologies) with 10% foetal bovine serum (FBS) and 1% penicillin/streptomycin in an incubator at 37° C. with 5% CO2.
# For this, the SH-SY5Y cells are cultured in a 6-well plate at a cell density of 200,000 cells/well and are differentiated using retinoic acid (10 μM, Sigma Aldrich) for 5 days. On day 6, the cells are brought into contact with LG2A molecules at different concentrations (0.1, 1, 10 or 100 μg/mL), in a final volume of 2 mL. After 24 hours, MTT (5 μg/mL; Sigma-Aldrich) is added to the cell medium for 2 hours at 37° C. Then the medium is removed and 200 μL of pure dimethylsulfoxide (DMSO, Sigma-Aldrich) are added to each well. The entire contents of each well are transferred to a 96-well plate and the absorbance is measured at 562 nm using the Infinite M1000 spectrofluorometer (Tecan).
# T1 sequence (P10636 1-441 isoform P10636-8): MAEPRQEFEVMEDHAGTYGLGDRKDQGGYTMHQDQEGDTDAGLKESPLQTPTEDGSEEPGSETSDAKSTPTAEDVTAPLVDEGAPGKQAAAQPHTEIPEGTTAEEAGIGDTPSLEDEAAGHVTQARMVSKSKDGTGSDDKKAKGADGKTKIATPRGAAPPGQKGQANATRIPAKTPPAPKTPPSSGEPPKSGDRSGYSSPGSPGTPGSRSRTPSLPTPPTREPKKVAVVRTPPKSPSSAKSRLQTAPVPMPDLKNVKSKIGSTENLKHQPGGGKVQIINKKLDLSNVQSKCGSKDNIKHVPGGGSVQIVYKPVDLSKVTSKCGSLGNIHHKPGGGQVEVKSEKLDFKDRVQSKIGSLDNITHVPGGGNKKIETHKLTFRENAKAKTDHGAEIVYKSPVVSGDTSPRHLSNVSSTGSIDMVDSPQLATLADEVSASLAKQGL
# T2 sequence (P10636 1-441 isoform P10636-8): as above
smiles,measurement,setting,value
"CCCCCCCCCCCCCCCCNC(=O)[C@H](O)[C@@H](O)[C@H](O[C@H]1OC(COS(=O)(=O)[O-])[C@@H](O)C(O)[C@@H]1O)[C@H](O)COS(=O)(=O)[O-].[Na+].[Na+] (stereo partly drawn) [Mal16diS, N-Hexadecyl-6,6′-Di-O-Sulfo-D-Maltobioamide Disodium]",abnormal phosphorylation of tau (p-tau) revealed by AT270 and Ser199/202 antibodies,"[1]; in presence of heparin, after 3 h of reaction",inhibited
same,ability to compete with heparin for abnormal tau phosphorylation by GSK3β,"[1]; molecule 60 μg/mL vs heparin 12 μg/mL, 1.5 to 6 h of reaction, AT270, Ser199/202",total competition with heparin
same,induction of tau protein aggregation (Thioflavin-T),[2],induces the aggregation of tau protein more weakly compared to heparin
same,cytotoxicity (MTT),[3],not cytotoxic
